pIC50: −log10 of the molar value.
Columns and labels:
[1] = target: T1, human soluble ENPP1 (Homo sapiens, UniProt P22413); experiment: ENPP1 activity assay using p-Nitrophenyl-5′-TMP as a substrate; assay type: biochemical
T1 construct: 20 ng of human soluble ENPP1
T1 sequence (P22413 103-925 limits assumed): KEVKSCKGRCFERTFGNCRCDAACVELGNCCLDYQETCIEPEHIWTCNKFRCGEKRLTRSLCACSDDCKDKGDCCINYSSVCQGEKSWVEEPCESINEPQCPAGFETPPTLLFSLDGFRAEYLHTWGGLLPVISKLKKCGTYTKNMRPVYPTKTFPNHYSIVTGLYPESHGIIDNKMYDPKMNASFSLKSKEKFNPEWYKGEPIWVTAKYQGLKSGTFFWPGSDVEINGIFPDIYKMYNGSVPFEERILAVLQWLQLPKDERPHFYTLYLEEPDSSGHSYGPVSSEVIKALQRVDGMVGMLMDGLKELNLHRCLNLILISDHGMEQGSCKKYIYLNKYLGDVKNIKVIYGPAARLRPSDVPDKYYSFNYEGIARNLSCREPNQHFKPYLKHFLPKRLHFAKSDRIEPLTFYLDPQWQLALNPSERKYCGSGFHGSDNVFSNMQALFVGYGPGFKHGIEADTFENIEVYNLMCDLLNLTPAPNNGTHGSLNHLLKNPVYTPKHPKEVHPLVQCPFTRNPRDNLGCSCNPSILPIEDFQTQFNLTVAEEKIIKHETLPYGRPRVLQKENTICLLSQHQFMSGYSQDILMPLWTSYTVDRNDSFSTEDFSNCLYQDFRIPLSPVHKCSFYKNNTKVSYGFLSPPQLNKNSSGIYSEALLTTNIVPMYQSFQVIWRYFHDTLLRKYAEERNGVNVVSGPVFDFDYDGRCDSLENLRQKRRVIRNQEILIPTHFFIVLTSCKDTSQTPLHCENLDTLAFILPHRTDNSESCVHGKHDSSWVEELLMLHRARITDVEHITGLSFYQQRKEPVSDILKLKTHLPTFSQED
Outline: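 Percent inhibition, set against uninhibited-enzyme and blank wells, was fitted to a four-parameter variable-slope model for IC50. Chromogenic read-out was p-nitrophenol released from TMP-pNP, added as a 2 mM […] solution for 1 h at RT. Before that, 20 ng soluble ENPP1 sat 30 min with compound.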

[2] = target: T1, human soluble ENPP1; experiment: ENPP1 activity assay using p-Nitrophenyl-5′-AMP as a substrate; assay type: biochemical
Outline: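 Absorbance at 405 nm tracks p-nitrophenol from AMP-pNP hydrolysis after 1 h at room temperature, substrate added as 3 mM (2× final) following 30 min enzyme–compound preincubation. Enzyme: 35 ng human soluble ENPP1. IC50 fitted (variable-slope four-parameter) from percent inhibition normalized to max and blank.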

[3] = target: T2, ENPP-1, MDA-MB-231 cells (Homo sapiens, UniProt P22413); experiment: cell-based; details: for inhibition at 20 µM: MDA-MB-231, read-out: % Inhibition (at 20 μM)
T2 sequence (P22413 1-925): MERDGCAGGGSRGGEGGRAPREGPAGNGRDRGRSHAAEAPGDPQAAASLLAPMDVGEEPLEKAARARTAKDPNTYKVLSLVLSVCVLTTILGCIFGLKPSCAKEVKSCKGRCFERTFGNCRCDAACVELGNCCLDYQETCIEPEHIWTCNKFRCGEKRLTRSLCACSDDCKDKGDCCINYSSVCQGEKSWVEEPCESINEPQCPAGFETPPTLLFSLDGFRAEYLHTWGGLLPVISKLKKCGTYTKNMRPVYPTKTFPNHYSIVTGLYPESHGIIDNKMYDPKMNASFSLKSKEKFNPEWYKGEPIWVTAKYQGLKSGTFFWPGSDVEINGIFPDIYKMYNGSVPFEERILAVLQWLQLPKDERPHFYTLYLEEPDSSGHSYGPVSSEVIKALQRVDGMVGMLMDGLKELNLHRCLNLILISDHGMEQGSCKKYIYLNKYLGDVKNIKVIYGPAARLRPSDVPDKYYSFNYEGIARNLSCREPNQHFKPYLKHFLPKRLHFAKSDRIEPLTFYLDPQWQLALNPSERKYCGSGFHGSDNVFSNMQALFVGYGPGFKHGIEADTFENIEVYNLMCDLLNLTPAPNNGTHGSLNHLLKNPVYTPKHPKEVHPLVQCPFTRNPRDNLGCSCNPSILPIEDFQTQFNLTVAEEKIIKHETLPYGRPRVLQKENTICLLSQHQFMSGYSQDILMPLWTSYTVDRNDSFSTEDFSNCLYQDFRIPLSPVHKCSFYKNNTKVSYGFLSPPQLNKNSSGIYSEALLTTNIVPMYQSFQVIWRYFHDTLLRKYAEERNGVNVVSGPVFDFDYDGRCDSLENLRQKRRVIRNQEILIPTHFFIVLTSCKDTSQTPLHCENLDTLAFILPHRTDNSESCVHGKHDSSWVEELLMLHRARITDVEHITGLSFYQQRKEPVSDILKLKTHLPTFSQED

[4] = Pharmacokinetics in mice; assay type: in vivo; details: mouse, plasma, male CD-1 mice; for AUC / clearance / half-life / Vd: 1 mg/kg, iv; for Vd: read-out: Vdss
Method: A dosing solution of test sample was prepared at 1.0 mg/mL in 5% DMSO/40% PEG400/55% water and administered to male CD-1 mice (4-6 weeks old, 20-30 grams, 3 animals each group) via intravenous (IV) bolus at 1 mg/kg and by oral gavage (PO) at 5 mg/kg. Blood samples (˜0.03 mL each time point) were collected via the jugular vein into tubes containing sodium heparin as the anticoagulant at 0.033, 0.083, 0.25, 0.5, 1, 2, 4, 8 and 24 hours post dose for IV administration and 0.083, 0.25, 0.5, 1, 2, 4, 8 and 24 hours post dose for PO administration. The blood samples were then centrifuged for 5 minutes in a centrifuge refrigerated at 4° C. The resultant plasma samples were analyzed using LC/MS/MS to determine concentrations of test sample. Non-compartmental model with WinNonlin (Phoenix™, version 8.0) software was used to calculate pharmacokinetic (PK) parameters.

| SMILES | pIC50 [1] | pIC50 [2] | pIC50 [3] | inhibition at 20 µM [3] [%] | AUC [4] [ng·h/mL] | clearance [4] [mL/min/kg] | half-life [4] [h] | Vd [4] [L/kg] | bioavailability ([4]; oral gavage (PO) at 5 mg/kg vs IV 1 mg/kg) [%] |
| --- | --- | --- | --- | --- | --- | --- | --- | --- | --- |
| COc1ccc2c(ncc3nc(CN4CCOCC4)n(Cc4ccc(S(N)(=O)=O)c(F)c4)c32)n1 [Compound 80, 2-fluoro-4-((7-methoxy-2-(morpholinomethyl)-1H-imidazo[4,5-c][1,8]naphthyridin-1-yl)methyl)benzenesulfonamide] | 8.74 | 8.19 | 5.74 | 75 | 158 | 107 | 0.13 | 1 |  |
| COc1ccc2c(ncc3c2n(Cc2c(F)cc(S(N)(=O)=O)cc2F)c(=O)n3C)n1 [Compound 114, 3,5-difluoro-4-((7-methoxy-3-methyl-2-oxo-2,3-dihydro-1H-imidazo[4,5-c][1,8]naphthyridin-1-yl)methyl)benzenesulfonamide] | 9.57 | 9.64 | 7.10 | 77 | 454 | 37 | 3.9 | 12 | 33 |
| COc1ccc2c(ncc3nc(C)n(Cc4cc(F)c(S(N)(=O)=O)cc4F)c32)n1 [Compound 70, 2,5-difluoro-4-((7-methoxy-2-methyl-1H-imidazo[4,5-c][1,8]naphthyridin-1-yl)methyl)benzenesulfonamide] | 9.19 | 8.92 | 6.54 | 85 | 668 | 26 | 2.6 | 4.3 |  |
| COc1ccc2c(ncc3nc(C)n(Cc4ccc(S(N)(=O)=O)c(F)c4)c32)n1 [Compound 71, 2-fluoro-4-((7-methoxy-2-methyl-1H-imidazo[4,5-c][1,8]naphthyridin-1-yl)methyl)benzenesulfonamide] | 9.00 | 8.54 | 5.96 | 76 | 288 | 60 | 0.74 | 2.8 |  |
| COc1ccc2c(ncc3ncn(Cc4ccc(S(N)(=O)=O)cc4F)c32)n1 [Compound 62, 3-fluoro-4-((7-methoxy-1H-imidazo[4,5-c][1,8]naphthyridin-1-yl)methyl)benzenesulfonamide] | 10.00 | 8.82 | 7.35 | 89 | 163 | 105 | 4.9 | 39 |  |
| COc1ccc2c(ncc3nc(C)n(Cc4ccc(S(N)(=O)=O)nc4)c32)n1 [Compound 73, 5-((7-methoxy-2-methyl-1H-imidazo[4,5-c][1,8]naphthyridin-1-yl)methyl)pyridine-2-sulfonamide] | 9.44 | 9.02 | 6.57 | 81 | 267 | 63 | 0.6 | 1.6 |  |
| COc1ccc2c(ncc3nc(C)n(Cc4ccc(S(N)(=O)=O)cn4)c32)n1 [Compound 72, 6-((7-methoxy-2-methyl-1H-imidazo[4,5-c][1,8]naphthyridin-1-yl)methyl)pyridine-3-sulfonamide] | 9.24 | 8.92 | 6.47 | 81 | 303 | 56 | 1.4 | 2.9 |  |
| COc1ccc2c(ncc3nc(C4CC4)n(Cc4ccc(S(N)(=O)=O)cn4)c32)n1 [Compound 74, 6-((2-cyclopropyl-7-methoxy-1H-imidazo[4,5-c][1,8]naphthyridin-1-yl)methyl)pyridine-3-sulfonamide] | 10.05 | 9.92 | 7.07 | 81 | 138 | 123 | 1.4 | 14 |  |
| COc1ccc2c(ncc3ncn([C@H](C)c4ccc(S(N)(=O)=O)cn4)c32)n1 [Compound 60, (R)-6-(1-(7-methoxy-1H-imidazo[4,5-c][1,8]naphthyridin-1-yl)ethyl)pyridine-3-sulfonamide] | 9.51 | 8.82 | 6.31 | 83 | 215 | 78 | 2.5 | 11 |  |
| COc1ccc2c(ncc3ncn(CC4CN(S(N)(=O)=O)C4)c32)n1 [Compound 52, 3-((7-methoxy-1H-imidazo[4,5-c][1,8]naphthyridin-1-yl)methyl)azetidine-1-sulfonamide] | 9.27 | 8.66 | 5.89 | 79 | 179 | 103 | 0.35 | 1.1 |  |
| COc1ccc2c(ncc3ncn(Cc4ccc(S(N)(=O)=O)c(F)c4)c32)n1 [Compound 61, 2-fluoro-4-((7-methoxy-1H-imidazo[4,5-c][1,8]naphthyridin-1-yl)methyl)benzenesulfonamide] | 9.28 | 8.72 | 6.11 | 80 | 271 | 62 | 1.4 | 4.5 |  |
| COc1ccc2c(ncc3cnn(Cc4ccc(S(N)(=O)=O)c(F)c4)c32)n1 [Compound 122a, 2-fluoro-4-((7-methoxy-1H-pyrazolo[4,3-c][1,8]naphthyridin-1-yl)methyl)benzenesulfonamide] | 8.80 | 8.37 | 5.77 | 74 | 170 | 100 | 0.33 | 2 |  |
| COc1ccc2c(ncc3nnn(Cc4ccc(S(N)(=O)=O)cn4)c32)n1 [Compound 119, 6-((7-methoxy-1H-[1,2,3]triazolo[4,5-c][1,8]naphthyridin-1-yl)methyl)pyridine-3-sulfonamide] | 9.15 | 8.96 | 6.92 | 83 | 301 | 56 | 1.4 | 4.5 |  |

Source: patent publication US11673889B2, “Substituted imidazo[4,5-c][1,8]naphthyridines as phosphodiesterase inhibitors” (Nanjing Zhengxiang Pharmaceuticals Co., Ltd., priority 2019, dated 2023)
